Patent US9375421B2, “Pharmaceutical intervention for treating an apraxia of speech in children” (Gilrose Pharmaceuticals, LLC, priority 2011, dated 2016)

Columns and labels:
[1] = system: children with apraxia of speech; test: Speech and language assessment of children with apraxia of speech before and after a psychostimulant dose (case examples); assay type: in vivo, human
Description: Assessment of the verbal ability of a subject can include but is not limited to measures of all the domains described herein: nonspeech oral-motor, speech production, prosody, voice, speech perception, language, and, for older children, linguistic/literacy skills. Of these, (a) inconsistent errors on consonants and vowels in repeated productions of syllables or words, (b) lengthened and disrupted coarticulatory transitions between sounds and syllables, (c) inappropriate prosody, especially in the realization of lexical or phrasal stress; (d) the inability to see a new word and to have the ability to identify and sequence in time and space the sounds not only by themselves but in relationship to one another to be able to produce to transform from a symbol, orthographic to sound representation but to do it according to the rules of language knowing where to divide the written symbols into units; (e) the inability to not only transform into sounds, but sounds in relationship in terms of speed and volume to have that word in the context have that meaning that the author of the written word wanted to convey. The cultural and linguistic background of each subject may optionally be assessed.
When treating a child who is incapable of communication, the child is tested with respect to language skills as well as visual-spatial comprehension skills. For example, a child may be asked to pronounce a few single syllable words, such as “ma, ma” “ba, ba” or to described a picture or read a few words. At the same time, the child's body motions and emotional interactions with other people are observed.
For example, an improvement in a subject may include but is not limited to, an increase in the number of correct phonemes when speaking, a more normal time spent enunciating words, the number of times the last consonant of a word is used correctly, the proper sequencing of words and events, appropriate sound intensity.
Depending where the patient is on the apraxia pyramid, for example vocalization, words, prosody, the number of words in the sentence, the number or types of words in the sentence, the grammar syntax, prosody, measuring the child to his/her previous ability 20-30 minutes ago in addition to medication.

[2] = system: children with good nonverbal development not functioning well with reading and language skills; test: Three minute reading test before and after administering the medicine (FIG. 2 and FIG. 3); assay type: in vivo, human; details: most of the nine children; 5 mg; pre- versus after administering
Experimental: FIG. 2 is a comparison of the reading abilities of a group of children with a various diagnosed symptoms between pre-treatment and after-treatment with one dosage of 5-7.5 mg of methylphenidate.
FIG. 3 is a comparison of the reading abilities of another group of children with a various diagnosed symptoms between pre-treatment and after-treatment with one dosage of 5-7.5 mg of methylphenidate.
Metrics for quantitative assessment of the language ability include words per minute, three minute reading test, sentence complexity such as length in words, complexity of construction, etc. The number of correctly read syllables minuses the number of mistakes divided by the months of reading training may be used to assess the language ability development.
In reference to FIG. 2 and FIG. 3. […] They were tested for three minute reading before and after administering the medicine. The mistakes in pronouncing syllables were counted. The correct pronunciation ratios (divided by the total number of syllables read) were compared between the pre-administering the drug and after administering the drug. […] Most of them had least 40% improvement.

| Compound | speech and language (Example 9A, fifth visit) ([1]; Participant 9A, 10 mg/day after the methylphenidate regimen, about two weeks later) | speech and comprehension (Example 9B) ([1]; Participant 9B, same regimen as 9A (methylphenidate 5 then 10 mg/day, then Focalin 10 mg/day)) | improvement of correct pronunciation ratio, three minute reading [2] | speech ability after dose (Example 1) ([1]; 11 year autistic boy, 10 mg tablets, thirty minutes after dose) | speech improvement (Example 9A, third visit) ([1]; Participant 9A, 5 mg/day, after a month) | comprehension (Example 9A, fourth visit) ([1]; Participant 9A, 10 mg/day, about a month later) | reading ability after dose (Example 5) ([1]; child with dyslexia, 10 mg, half an hour later) | speech ability after dose (Example 7) ([1]; child, chromosome 15 duplication, 2.5 mg, thirty minutes later) | speech and motor ability after dose (Example 8) ([1]; child, 5 mg, after 30 minutes) | speech ability after dose (Example 2) ([1]; child, one dosage of 5 mg, half an hour later) | follow up on speech after repeated dosing (Example 7) ([1]; same child, 2.5 mg a day for two to three months) |
| --- | --- | --- | --- | --- | --- | --- | --- | --- | --- | --- | --- |
| COC(=O)[C@H](c1ccccc1)[C@H]1CCCCN1 [Focalin®, dextro-threo-methylphenidate] | able to answer questions about their daily life in clear speech and language | an improvement in speech and comprehension |  |  |  |  |  |  |  |  |  |
| COC(=O)C(c1ccccc1)C1CCCCN1 (centres unmarked) [methylphenidate] |  |  | ≥ 40% | able to imitate “ma ma ma” | no significant improvement in speech | able to understand the story line of a children's book | able to read a sentence with smooth pronunciations | able to make sounds of “ma mi”, mimic “bye”, “bye” and babble with sounds | able to repeat two syllable words | able to follow instructions to mimic the sounds “ma” “ma” “ga” “ga” | good progress in speaking sounds |
